Values belong to the molecule of their own block, whether it stands above or below them.
Tests used:
LXRs = conditions: Lehmann et al. 1997; cited from earlier work
[1] = tested on: GLUT4 expression in adipose tissue of LXR null mice; assay: Adipose tissue gene expression in LXR null mice vs wild-type controls; type: in vivo, mouse; conditions: 20 mg/kg/day gavage; FIG. 3B
Procedure: (§1) This Example describes that the effects of LXR agonists on expression of genes involved in glucose metabolism is dependent on LXR expression. LXR null mice or wild-type controls on a mixed background (n=4 per group) were gavaged daily with GW3965 (20 mg/kg/day) or vehicle. At the end of the treatment period, mice were fasted for 12 hours, sacrificed and total RNA was isolated. Gene expression for was determined by real time quantitative PCR assays.

[2] = tested on: GLUT4 expression in white adipose tissue; assay: Gene expression in white adipose tissue of mice gavaged with LXR agonist (real time quantitative PCR); type: in vivo, mouse; conditions: C57/B16 mice, 20 mg/kg/day gavage, fasted 12 hours; FIG. 1B
Procedure: (§2) This Example describes coordinated regulation of genes involved in glucose metabolism by LXR agonist in vivo. 10 week old female C57/B16 mice (n=9 per group) were gavaged daily with GW3965 (20 mg/kg/day) or vehicle. At the end of the treatment period, mice were fasted for 12 hours, sacrificed and total RNA was isolated. Gene expression for individual animals was determined by real time quantitative PCR assays. The results are presented in FIGS. 1 and 2 as average expression for each group +/−standard deviation.

[3] = tested on: genes involved in glucose metabolism in liver; assay: Gene expression in liver of mice gavaged with LXR agonist (real time quantitative PCR); type: in vivo, mouse; conditions: C57/B16 mice, 20 mg/kg/day gavage, fasted 12 hours; FIG. 1A
Procedure: as §2

[4] = tested on: PGC-1 and PEPCK expression in livers of LXR null mice; assay: Liver gene expression in LXR null mice vs wild-type controls; type: in vivo, mouse; conditions: 20 mg/kg/day gavage; FIG. 3A
Procedure: as §1

[5] = tested on: obese, insulin-resistant ob/ob mice; assay: Fasting plasma glucose in ob/ob mice, LXR agonist and/or metformin; type: in vivo, mouse; conditions: 3 months, GW3965 20 mg/kg/day, metformin 300 mg/kg/day, FIG. 11
Procedure: This Example describes treatment of mice with a combination of an LXR agonist and a known anti-diabetic drug. Obese, insulin-resistant ob/ob mice were treated with an LXR ligand, GW3965, at 20 mg/kg/day and/or metformin at 300 mg/kg/day for 3 months. Fasting plasma glucose levels were then determined.

LXRβ = target: T1, LXRβ (Homo sapiens, UniProt P55055); conditions: Collins et al. 2002; cited from earlier work
T1 sequence (P55055 1-460): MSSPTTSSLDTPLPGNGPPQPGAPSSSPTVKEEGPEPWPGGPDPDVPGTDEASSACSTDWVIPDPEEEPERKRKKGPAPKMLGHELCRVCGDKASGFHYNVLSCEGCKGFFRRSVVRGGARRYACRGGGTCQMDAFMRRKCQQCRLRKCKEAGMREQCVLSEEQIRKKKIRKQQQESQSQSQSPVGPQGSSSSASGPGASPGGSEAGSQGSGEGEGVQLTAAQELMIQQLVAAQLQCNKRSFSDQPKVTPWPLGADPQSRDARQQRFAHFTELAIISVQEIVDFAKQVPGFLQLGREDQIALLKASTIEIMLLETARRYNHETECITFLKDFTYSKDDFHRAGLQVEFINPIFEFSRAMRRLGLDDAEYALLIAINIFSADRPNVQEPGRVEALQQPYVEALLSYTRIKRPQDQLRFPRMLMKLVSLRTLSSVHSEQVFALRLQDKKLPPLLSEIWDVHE

[6] = tested on: C57B16 mice fed a high fat diet; assay: Glucose tolerance test in diet-induced obese mice; type: in vivo, mouse; conditions: diet-induced obesity, 20 mg/kg/day for one week
Procedure: To further examine effects of LXR agonists on glucose tolerance, C57B16 mice were fed a high fat diet for three months (Clinton/Cybulsky rodent diet; 40% kcal from fat, devoid of cholesterol) to induce obesity. After 3 months, mice were treated for one week with vehicle or 20 mg/kg/day GW3965. Glucose tolerance tests were performed by intraperitoneal injection of glucose (2 g/kg body weight) after 8 hours of fasting (FIG. […]). In addition, effect of GW3965 on glucose tolerance in lean C57B1/6 mice was also examined (FIG. 10B). The lean C57B1/6 mice maintained on normal chow diet and similarly treated as indicated above.

LXRα = target: T2, LXRα (Homo sapiens, UniProt Q13133); conditions: Collins et al. 2002; cited from earlier work
T2 sequence (Q13133 1-447): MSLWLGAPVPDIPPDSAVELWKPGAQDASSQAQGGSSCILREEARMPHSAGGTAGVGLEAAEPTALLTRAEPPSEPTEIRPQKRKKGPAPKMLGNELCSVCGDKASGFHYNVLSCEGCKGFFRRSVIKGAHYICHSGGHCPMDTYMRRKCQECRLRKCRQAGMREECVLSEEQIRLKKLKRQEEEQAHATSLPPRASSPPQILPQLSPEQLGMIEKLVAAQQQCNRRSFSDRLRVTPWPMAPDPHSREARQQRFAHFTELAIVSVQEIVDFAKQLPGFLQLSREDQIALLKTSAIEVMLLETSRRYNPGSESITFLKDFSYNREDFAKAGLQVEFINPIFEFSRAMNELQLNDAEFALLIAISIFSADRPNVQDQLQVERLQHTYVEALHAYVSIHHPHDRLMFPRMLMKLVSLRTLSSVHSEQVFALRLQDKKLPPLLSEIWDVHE

human GLUT4 promoter = assay: Human GLUT4 promoter luciferase reporter in 3T3-L1 adipocytes; type: cell-based, mouse; conditions: 3T3-L1 adipocytes day 8, serum-free media, 24 hours; FIG. 8B
Procedure: To further examine whether LXR ligands activate the human GLUT4 promoter, clonal populations of 3T3-L1 cells carrying stably-integrated luciferase reporters under the control of various truncations of the human GLUT4 promoter were differentiated into adipocytes. On day 8 of differentiation, cells were incubated in serum-free media with the indicated concentrations of T1317. Luciferase activity was measured 24 hours later.

3T3-L1 adipocytes = assay: Basal glucose uptake in 3T3-L1 adipocytes (14C-labeled 2-DOG); type: cell-based; conditions: 3T3-L1 adipocytes day 10, 24 hours serum-free; FIG. 9
Procedure: 3T3-L1 adipocytes at day 10 of differentiation were incubated for 24 hours with serum-free media supplemented with the indicated concentrations of T1317. The following day, basal glucose uptake (in the absence of insulin) of treated cells was measured in 96-well CytostarT plates using 14 C-labeled 2-DOG. Insulin (1 μg/ml) was used as positive control.

[7] = target: T3, glucocorticoid receptor DNA binding domain and the ligand binding region of PPARα (Homo sapiens, UniProt Q07869); conditions: Schmidt et al. 1999; cited from earlier work
T3 sequence (Q07869 239-466 limits assumed): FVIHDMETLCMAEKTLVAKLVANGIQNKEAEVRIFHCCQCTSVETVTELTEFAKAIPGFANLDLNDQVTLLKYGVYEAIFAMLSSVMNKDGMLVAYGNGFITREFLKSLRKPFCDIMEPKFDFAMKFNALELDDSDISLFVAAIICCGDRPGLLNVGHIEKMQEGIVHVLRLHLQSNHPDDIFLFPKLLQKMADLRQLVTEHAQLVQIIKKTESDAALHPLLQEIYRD

[8] = target: T4, glucocorticoid receptor DNA binding domain and the ligand binding region of PPARβ (Homo sapiens, UniProt Q03181); conditions: Schmidt et al. 1999; cited from earlier work
T4 sequence (Q03181 211-439 limits assumed): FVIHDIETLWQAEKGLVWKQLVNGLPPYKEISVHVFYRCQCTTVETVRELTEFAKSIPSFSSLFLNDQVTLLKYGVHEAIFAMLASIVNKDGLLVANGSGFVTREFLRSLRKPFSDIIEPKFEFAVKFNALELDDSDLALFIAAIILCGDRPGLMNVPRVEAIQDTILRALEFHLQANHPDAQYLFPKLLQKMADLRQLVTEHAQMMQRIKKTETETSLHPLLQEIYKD

[9] = target: T5, glucocorticoid receptor DNA binding domain and the ligand binding region of LXRβ (Homo sapiens, UniProt P55055); conditions: Schmidt et al. 1999; cited from earlier work
T5 sequence (P55055 222-460 limits assumed): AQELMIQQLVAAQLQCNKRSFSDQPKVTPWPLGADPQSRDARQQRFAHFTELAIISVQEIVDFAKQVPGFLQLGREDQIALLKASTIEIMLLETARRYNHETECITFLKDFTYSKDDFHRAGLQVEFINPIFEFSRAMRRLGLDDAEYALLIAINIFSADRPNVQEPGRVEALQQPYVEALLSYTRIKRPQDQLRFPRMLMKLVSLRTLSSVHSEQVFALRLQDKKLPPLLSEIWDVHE

Structure (SMILES): CC(C)CC[C@@H](O)[C@@H](C)[C@H]1CC[C@H]2[C@@H]3CC=C4C[C@@H](O)CC[C@]4(C)[C@H]3CC[C@]12C [22(R)-hydroxycholesterol]
activation of LXRs (LXRs): activated

Structure (SMILES): CC(C)[C@@H](O)CC[C@@H](C)[C@H]1CC[C@H]2[C@@H]3CC=C4C[C@@H](O)CC[C@]4(C)[C@H]3CC[C@]12C [24(S)-hydroxycholesterol]
activation of LXRs (LXRs): activated

Structure (SMILES): C[C@H](CC[C@@H]1OC1(C)C)[C@H]1CC[C@H]2[C@@H]3CC=C4C[C@@H](O)CC[C@]4(C)[C@H]3CC[C@]12C [24,25(S)-epoxycholesterol]
activation of LXRs (LXRs): activated

glucokinase expression in liver [3]: induces
Structure (SMILES): O=C(O)Cc1cccc(OCCCN(Cc2cccc(C(F)(F)F)c2Cl)CC(c2ccccc2)c2ccccc2)c1 [GW3965]
regulation of GLUT4 expression in adipose tissue of LXR null mice [1]: abolished
GLUT4 expression in white adipose tissue [2]: induces
expression of genes involved in gluconeogenesis in liver [3]: represses
regulation of PEPCK expression in livers of LXR null mice [4]: abolished
regulation of PGC-1 expression in livers of LXR null mice [4]: abolished
fasting plasma glucose level compared to control (vehicle) [5]: did not show significant difference
activation of LXRβ (LXRβ): effective in activating
insulin resistance [6]: improve
glucose tolerance ([6]; i.p. glucose 2 g/kg after 8 hours fasting): improve
activation of LXRα (LXRα): effective in activating

luciferase activity under control of human GLUT4 promoter truncations (human GLUT4 promoter): direct target for regulation
Structure (SMILES): O=S(=O)(c1ccccc1)N(CC(F)(F)F)c1ccc(C(O)(C(F)(F)F)C(F)(F)F)cc1 [T1317]
basal glucose uptake (in the absence of insulin) (3T3-L1 adipocytes): enhance glucose uptake

Structure (SMILES): CCCCCCCCCCCCCCOc1ccc(C(=O)O)o1 [TOFA, 5-tetradecyloxy-2-furancarboxylic acid]
transactivation of chimeric GR DBD / PPARα ligand binding region receptor [7]: transactivates
transactivation of chimeric GR DBD / PPARβ ligand binding region receptor [8]: transactivates
transactivation of chimeric GR DBD / LXRβ ligand binding region receptor [9]: transactivates

Structure (SMILES): CN(C)C(=N)N=C(N)N [metformin]
fasting plasma glucose level compared to control (vehicle) [5]: did not show significant difference

— patent publication US20050036992A1, “Novel use of liver X receptor agonists” (IRM LLC, priority 2002, published 2005)
